The target in assay [1] is T1, AR-VP16 (Homo sapiens, UniProt P10275).
T1 sequence (P10275 560-920 limits assumed): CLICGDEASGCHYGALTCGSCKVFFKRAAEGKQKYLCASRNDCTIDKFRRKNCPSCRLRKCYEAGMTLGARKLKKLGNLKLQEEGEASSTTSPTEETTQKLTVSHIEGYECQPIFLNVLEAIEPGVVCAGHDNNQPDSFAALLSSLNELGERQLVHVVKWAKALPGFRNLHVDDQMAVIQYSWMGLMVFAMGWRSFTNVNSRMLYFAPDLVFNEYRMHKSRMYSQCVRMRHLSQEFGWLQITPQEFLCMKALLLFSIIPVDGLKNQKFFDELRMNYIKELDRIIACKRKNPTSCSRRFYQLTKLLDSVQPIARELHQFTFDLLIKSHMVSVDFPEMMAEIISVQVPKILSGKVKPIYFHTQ
The assay is described as follows: AR-VP16 DNA Binding Assay, agonist mode (HepG2 cells). In kind it is cell-based. To be noted: Emax >20x DMSO control = agonist.

The target in assay [2] is T1, AR-VP16. The assay is described as follows: AR-VP16 DNA Binding Assay, antagonist mode (HepG2 cells, 0.1 nM R1881). In kind it is cell-based. The gist of the method: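 Transfected HepG2 cells expressing AR-VP16 received serially diluted compound in charcoal-stripped-serum RPMI the day after transfection, with 0.1 nM R1881 (final) added only for antagonist testing. After 48 h, cells were lysed for measurement.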

Bounds are passed on as bounds.

From patent US9108944B2, “Androgen receptor modulators and uses thereof” (ARAGON PHARMACEUTICALS, INC., priority 2010, dated 2015) come the findings set out here.

The term IC50 denotes the point on the concentration scale where inhibition reaches its midpoint. On to `Cc1ccc(N2C(=S)N(c3cnc(C#N)c(Cl)c3)C(=O)C23CCC3)cc1` [Compound 57, 3-Chloro-5-(8-oxo-6-thioxo-5-(p-tolyl)-5,7-diazaspiro[3.4]octan-7-yl)picolinonitrile], for which, on AR-VP16 [1], the “ARVP16 DNA Binding Assay (Agonist mode): Agonist?” value (from here on “ARVP16 DNA Binding Assay”) is reported as “No (Agonist defined as a compound whose Emax in the ARVP16 DNA Binding Assay (Agonist mode) is >20x DMSO control)”. The compound further gave an IC50 on AR-VP16 [2] below 1 µM.
The corresponding values for `COc1cc(N2C(=O)C3(CCC3)N(c3ccc(C)cc3)C2=S)cnc1C#N` [Compound 59, 3-Methoxy-5-(8-oxo-6-thioxo-5-(p-tolyl)-5,7-diazaspiro[3.4]octan-7-yl)picolinonitrile] are “No (Agonist defined as a compound whose Emax in the ARVP16 DNA Binding Assay (Agonist mode) is >20x DMSO control)” and below 1 µM.
Regarding `CNC(=O)c1ccc(N2C(=S)N(c3cnc(C#N)c(OC)c3)C(=O)C23CCC3)cc1F` [Compound 60, 4-(7-(6-Cyano-5-methoxypyridin-3-yl)-8-oxo-6-thioxo-5,7-diazaspiro[3.4]octan-5-yl)-2-fluoro-N-methylbenzamide], on AR-VP16 [1], the “ARVP16 DNA Binding Assay” value was “Yes (Agonist defined as a compound whose Emax in the ARVP16 DNA Binding Assay (Agonist mode) is >20x DMSO control)”. The compound further yielded an IC50 on AR-VP16 [2] below 1 µM.
The corresponding values for `Cc1ccc(N2C(=S)N(c3cnc(-c4cccnc4)c(C(F)(F)F)c3)C(=O)C23CCC3)cc1` [Compound 61, 6-Thioxo-5-(p-tolyl)-7-(3-(trifluoromethyl)-[2,3′-bipyridin]-5-yl)-5,7-diazaspiro[3.4]octan-8-one] are “No (Agonist defined as a compound whose Emax in the ARVP16 DNA Binding Assay (Agonist mode) is >20x DMSO control)” and above 1 µM.
With `Cc1ccc(N2C(=S)N(c3ccc4nccn4c3)C(=O)C23CCC3)cc1` [Compound 62, 7-(Imidazo[1,2-a]pyridin-6-yl)-6-thioxo-5-(p-tolyl)-5,7-diazaspiro[3.4]octan-8-one], the “ARVP16 DNA Binding Assay” value at AR-VP16 [1] is “No (Agonist defined as a compound whose Emax in the ARVP16 DNA Binding Assay (Agonist mode) is >20x DMSO control)”. The compound further showed a 50% inhibitory concentration (IC50) at AR-VP16 [2] above 1 µM.
`Cc1ccc(N2C(=S)N(c3cnc(C#N)c4ccccc34)C(=O)C23CCC3)cc1` [Compound 65, 4-(8-Oxo-6-thioxo-5-(p-tolyl)-5,7-diazaspiro[3.4]octan-7-yl)isoquinoline-1-carbonitrile]: on AR-VP16 [1], the “ARVP16 DNA Binding Assay” value is listed as “Yes (Agonist defined as a compound whose Emax in the ARVP16 DNA Binding Assay (Agonist mode) is >20x DMSO control)”. The compound further gave a 50% inhibitory concentration (IC50) on AR-VP16 [2] below 1 µM.
Taken in the same sequence, the figures for `N#Cc1ncc(N2C(=O)C3(CCC3)N(c3ccccc3CO)C2=S)cc1C(F)(F)F` [Compound 68, 5-(5-(2-(Hydroxymethyl)phenyl)-8-oxo-6-thioxo-5,7-diazaspiro[3.4]octan-7-yl)-3-(trifluoromethyl)picolinonitrile] were “No (Agonist defined as a compound whose Emax in the ARVP16 DNA Binding Assay (Agonist mode) is >20x DMSO control)” and above 1 µM.
The corresponding values for `N#Cc1ncc(N2C(=O)C3(CCC3)N(c3ccc(CO)cc3)C2=S)cc1C(F)(F)F` [Compound 69, 5-(5-(4-(Hydroxymethyl)phenyl)-8-oxo-6-thioxo-5,7-diazaspiro[3.4]octan-7-yl)-3-(trifluoromethyl)picolinonitrile] are “No (Agonist defined as a compound whose Emax in the ARVP16 DNA Binding Assay (Agonist mode) is >20x DMSO control)” and below 1 µM.
Taken in the same sequence, the figures for `COC(=O)c1ccc(N2C(=S)N(c3cnc(C#N)c(C)c3)C(=O)C23CCC3)c(F)c1` [Compound 71, Methyl 4-(7-(6-cyano-5-methylpyridin-3-yl)-8-oxo-6-thioxo-5,7-diazaspiro[3.4]octan-5-yl)-3-fluorobenzoate] were “No (Agonist defined as a compound whose Emax in the ARVP16 DNA Binding Assay (Agonist mode) is >20x DMSO control)” and above 1 µM.
